Data reported in EP0197829A1, “5H-pyrido[3',4':4,5]pyrrolo[3,2-c]pyridine derivatives, process for their preparation and their antitunour activity” (SANOFI, priority 1985, dated 1986).
Several values for one entry are separate records, joined by “and”; a condition that tells them apart may be missing. Equal values may be shown once. Read-outs that look alike come from different tables or passages of the source.

Key:
[1] = test system: lignée tumorale leucémie L 1210; assay: In vitro cytotoxicity on L 1210 leukemia cell culture; assay type: cell-based; settings: Mus musculus, L1210; concentration inhibiting cell proliferation by 50 p. 100, after 48 h contact; read-out: ID 50 (the source's name)
Method: 1) In vitro : (PAOLETTI et al., Chem. Biol. Interaction, 1979, 25, 45-58).
L'activité cytotoxique des composés de l'invention a été évaluée par des essais in vitro. Ces essais consistent à ajouter des concentrations croissantes du composé à tester à une culture cellulaire de la lignée tumorale leucémie L 1210 en phase exponentielle de croissance. Les cellules sont incubées à 37°C dans une étuve à C02 et comptées toutes les 24 heures. Le calcul de l'ID 50 (concentration du produit exprimée en micromole 1^-1 qui inhibe la prolifération cellulaire à 50 p. 100) est effectué après 48 heures de contact. Ainsi déterminées, les ID 50 des composés de l'invention sont rassemblées dans le tableau I ci-après : […]

leucémie P 388 = assay type: in vivo, souris hybrides CDF1
From the text: (§1) L'activité antitumorale a été testée in vivo sur différentes tumeurs selon le protocole général suivant : Toutes les souris mâles ou femelles sont inoculées par voie intrapéritonéale au jour Jo avec une quantité déterminée de cellules tumorales viables, variable selon la tumeur.
(§2) Elles sont ensuite réparties en différents lots. Chaque lot correspondant aux animaux traités par le produit à tester à une dose déterminée est composé de lO souris. Dans ce cas, le produit à tester est dissous dans l'eau distillée et il est administré, pendant n jours (J1-Jn) variables selon le protocole choisi, par voie intrapéritonéale à raison de 0,1 ml par lO g de poids des souris traitées, les doses du produit administré étant précisées dans les tableaux ci-dessous.
(§3) Le lot "Contrôle négatif", correspondant aux animaux qui ne sont pas traités par un produit, comprend 2 √N animaux, N étant égal au nombre total de souris traitées par un produit.
(§4) Enfin, tous lés essais sont conduits parallèlement à l'étude d'un lot appelé "Contrôle positif" de 10 animaux qui est traité par une molécule active, variable selon le protocole choisi, dans les mêmes conditions que les lots traités par le produit à tester, afin de valider l'essai.
(§5) L'activité antitumorale est évaluée en considérant l'augmentation du temps de survie des animaux traités par rapport à celui des animaux du lot "Contrôle négatif" selon la formule : • Jour médian de survie des animaux traités à une T/C = dose donnée de produit x 100 • Jour médian de survie des animaux "Contrôle négatif"
(§6) Un composé est considéré comme étant actif lorsque la valeur du rapport T/C est égale ou supérieure à 125 % selon le protocole retenu. Il est toxique lorsque cette valeur est égale ou inférieure à 85 %. Le produit est également considéré comme toxique lorsque la variation pondérale, exprimée en grammes et calculée par la formule : Poids moyen du lot mesuré au jour 5 - poids moyen du même lot au jour 1, est égale ou inférieure à -4g . a) Test de la leucémie P 388 (GERAN et al., Cancer Chemother, 1972, 2, 07-57).
Les essais sont effectués avec des souris hybrides CDF1 inoculées par voie intrapéritonéale avec […] leucémiques de la lignée P 388. Le composé à tester est administré pendant 5 jours (Jl-J5). Le contrôle positif du test est le 5-fluorouracile qui est administré dans les mêmes conditions.
[…] Un composé est considéré comme étant actif lorsque le rapport T/C est supérieur à 127 %.

in vivo = assay: in vivo; set-up: species or system souris; settings: mouse, ip, 200 mg/kg
Method: Ainsi, l'administration à des souris hybrides CDF1 saines, en une injection unique par la voie intrapéritonéale, de doses croissantes des composés à tester (5 mg, 10 mg, 20 mg, 40 mg/kg) a permis de constater que, à ces doses, les produits étaient parfaitement tolérés puisque le taux de survivants était de 100 p. 100.
Dans les mêmes conditions, administrés à des souris BDF1 saines, les taux de survivants étaient de 100 p. 100 jusqu'à 100 mg/kg pour les dérivés 1, 3 et 9 et jusqu'à 200 mg/kg pour les dérivés 2 et 8.

mélanome B 16 = assay: B 16 melanoma test in vivo; set-up: species or system souris hybrides BDF1; Jour médian de survie: unit not given here; settings: 0,5 mg/kg i.p. J1-J9
From the text: as §1, §2, §3, §4, §5, §6
c) Test du mélanome B 16 (GERAN et al., Cancer Chemother, 1972, 2, 07-57).
Les essais sont effectués avec des souris hybrides BDF1 inoculées avec O,5 ml d'un homogénat de mélanome B 16 réalisé à partir de 1 g de tumeur dans 10 ml de sérum physiologique. Le composé à tester est administré pendant 9 jours (J1-J9). Le contrôle positif du test est le Cis- platine administré dans les mêmes conditions. Le nombre d'animaux survivants est évalué au jour J 60. Un composé est considéré comme étant actif lorsque le rapport T/C est supérieur ou égal à 125 %.

réticulosarcome M5-M5076 = assay: M5-M5076 reticulosarcoma test in vivo; set-up: species or system souris hybrides BDF1; settings: 160 mg/kg i.p. J1, 5, 9, 13, 17
From the text: as §1, §2, §3, §4, §5, §6
d) Test du réticulosarcome M5-M5076.
Les essais sont effectués avec des souris hybrides BDF1 inoculées avec 10^6 cellules de la lignée M5-M5076. Le composé à tester est administré 5 fois successivement de façon séquentielle (Jl, 5, 9, 13, 17). Le contrôle positif du test est le cyclophosphamide administré dans les mêmes conditions. Le nombre d'animaux survivants est évalué au jour J 75. Un composé est considéré comme actif lorsque le rapport T/C est supérieur ou égal à 125 %.

leucémie L 1210 = assay: L 1210 leukemia test in vivo; set-up: species or system souris hybrides CDF1; settings: 20 mg/kg i.p. J1-J5
From the text: as §1, §2, §3, §4, §5, §6
b) Test de la leucémie L 1210 (GERAN et al., Cancer Chemother, 1972, 2, 07-57).
Les essais sont effectués avec des souris hybrides CDF1 inoculées avec 10^5 cellules leucémiques de la lignée L 1210. Le composé à tester est administré pendant 5 jours (J1-J5). Le contrôle positif du test est le 5-fluorouracile administré dans les mêmes conditions. Le nombre d'animaux survivants est évalué au jour J 60. Un composé est considéré comme étant actif lorsque le rapport T/C est supérieur ou égal à 125 %.

[2] = 20 mg/kg i.p. J1-J5, at day J 40

Compound `CCN(CC)CCCNc1ncc(C)c2c1c1cnccc1n2CC` [Dérivé N° 5, [(diéthylamino-3 propyl-1)amino]-1 méthyl-4 éthyl-5 5-H pyrido[3',4':4,5]pyrrolo[3,2-c]pyridine] has an IC50 [1] of 1400 nM.

In the case of `Cc1cnc(NCCCN(C)C)c2c1[nH]c1ccncc12` [Dérivé N° 3 bis, [(diméthylamino-3 propyl-1)amino]-1 méthyl-4 5-H pyrido[3',4':4,5]pyrrolo[3,2-c]pyridine], the “Jour médian de survie” value (leucémie P 388; 5 mg/kg i.p. J1-J5) is reported as 15,83, the T/C % (leucémie P 388; 5 mg/kg i.p. J1-J5) is reported as 145% and the Survivants (leucémie P 388; 5 mg/kg i.p. J1-J5, at day J 40) is reported as 0/10. The “Jour médian de survie” value (leucémie P 388; 10 mg/kg i.p. J1-J5) was 17,13, the T/C % (leucémie P 388; 10 mg/kg i.p. J1-J5) was 156% and the Survivants (leucémie P 388; 10 mg/kg i.p. J1-J5, at day J 40) was 0/10. For the same compound, the “Jour médian de survie” value (leucémie P 388; 20 mg/kg i.p. J1-J5) was 20,33, the T/C % (leucémie P 388; 20 mg/kg i.p. J1-J5) was 186% and the Survivants (leucémie P 388; [2]) was 0/10. For the same compound, the “Jour médian de survie” value (leucémie P 388; 40 mg/kg i.p. J1-J5) was 20,25, the T/C % (leucémie P 388; 40 mg/kg i.p. J1-J5) was 184% and the Survivants (leucémie P 388; 40 mg/kg i.p. J1-J5, at day J 40) was 0/10. The “Jour médian de survie” value (leucémie P 388; 50 mg/kg i.p. J1-J5) was 22, the T/C % (leucémie P 388; 50 mg/kg i.p. J1-J5) was 181% and the Survivants (leucémie P 388; 50 mg/kg i.p. J1-J5, à J 42) was 1/10 à J 42. For the same compound, the “Jour médian de survie” value (leucémie P 388; 80 mg/kg i.p. J1-J5) was 19,88, the T/C % (leucémie P 388; 80 mg/kg i.p. J1-J5) was 181% and the Survivants (leucémie P 388; 80 mg/kg i.p. J1-J5, at day J 40) was 0/10. It also gave an IC50 [1] of 160 nM.

Work on `Cc1cnc(NCCNCCO)c2c1[nH]c1ccncc12` [Dérivé N° 2, [[[(hydroxy-2 éthyl-l)amino]-2 éthyl-1]-amino]-1 méthyl-4 5-H pyrido[3',4':4,5]pyrrolo[3,2-c]pyridine] yielded a survival (in vivo) of 100%.

For `[NH2][Pt]([NH2])([Cl])[Cl]` [Cis-platine, reference compound], the “Jour médian de survie” value (mélanome B 16) was 30 and 31,0 and 40,0, the T/C % (mélanome B 16) was 126% and 133% and 141% and the Survivants (mélanome B 16; at day J 60) was 0.

In the case of `O=P1(N(CCCl)CCCl)NCCCO1` (stereo not shown) [Cyclophosphamide, cyclophosphamide, reference compound], the “Jour médian de survie” value (réticulosarcome M5-M5076) is reported as > 60 and > 71, the T/C % (réticulosarcome M5-M5076) is reported as >229% and >246% and the Survivants (réticulosarcome M5-M5076; at day J 75) is reported as 9 and 6.

For `O=c1[nH]cc(F)c(=O)[nH]1` [Fluorouracile, 5-fluorouracile, reference compound], the Survivants (leucémie P 388; [2]) was 0/10 and 0, the “Jour médian de survie” value (leucémie L 1210) was 16,0 and 18 and the T/C % (leucémie L 1210) was 178% and 195%. For the same compound, the Survivants (leucémie L 1210; at day J 60) was 0.
